Experiments:
Format in all cases: in vivo
[1] = test system: redroot pigweed (Amaranthus retroflexus, AMARE); assay: Pre-emerge test, greenhouse herbicide activity screening; conditions: for phytotoxicity rating AMARE: pre-emerge, 14 days after application, scale 0-100; for Pre-emerge herbicidal activity, phytotoxicity rating AMARE: rating scale 0-100, 14 days after application
Source text: (§1) A standard greenhouse herbicide activity screening system was used to evaluate the herbicidal efficacy and crop safety of these test compounds. Seven broadleaf weed species including redroot pigweed (Amaranthus retroflexus, AMARE, velvetleaf (Abutilon theophrasti, ABUTH), sicklepod (Cassia obtusifolia, CASOB), ivyleaf morningglory (Ipomoea hederacea, IPOHE), lambsquarters (Chenopodium album, CHEAL), common ragweed (Ambrosia artemisizfolia L., AMBEL), and cocklebur (Xanthium strumarium, XANST) were used as test species. Four grass weed species including green foxtail (Setaria viridis, SETVI), barnyardgrass (Echinochloa crus-galli, ECHCG), johnsongrass (Sorghum halepense, SORHA), and large crabgrass (Digitaria sanguinalis, DIGSA) were also used. In addition, three crop species, field corn (Zea mays L., var. Dekalb 535, CORN), soybean (Glycine max L., var. Pella 86, SOY), and is upland rice (Oryza sp., var. Tebonnet, RICE) were included.
(§2) All plants were grown in 10 cm square plastic pots which were filled with a sandy loam soil mix. For pre-emerge tests, seeds were planted one day prior to application of the test compounds. For post-emerge tests, seeds were planted 8-21 days prior to the test to allow emergence and good foliage development prior to application of the test substances. At the time of the post-emerge application, plants of all species were usually at the 2-3 leaf stage of development.
All test compounds Were dissolved in acetone and applied to the test units in a volume of 187 l /ha. […] Plants were arranged on a shelf so that the top of the canopy (post-emerge) or top of the soil surface (pre-emerge) was 40-45 cm below the nozzle. Pressurized air was used to force the test solution through the nozzle as it was mechanically advanced (via electrically driven chain drive) over the top of all test plants/pots. This application simulates a typical commercial field herbicide application.
(§3) In the post-emerge test, a commercial non-ionic surfactant was also included (0.25% v/v) to enhance wetting of the leaf surfaces of target plants. Immediately after application, test units of the pre-emerge applications were watered at the soil surface to incorporate the test materials. Subsequently, these test units were bottom-watered. Post-emerge test units were always bottom-watered.
(§4) At 14 days after application of the test materials, phytotoxicity ratings were recorded. A rating scale of 0-100 was used as previously described in Research Methods in Weed Science, 2nd edition, B. Truelove, Ed., Southern Weed Science Society, Auburn University, Auburn, Ala. 1977. Briefly, “0” corresponds to no damage and “100” corresponds to complete death of all plants in the test unit. This scale was used both to determine efficacy against weed species and damage to crop species. Herbicide activity data for various compounds of this invention, which are shown by compound No. in Tables 1-8, are shown in Tables 11 and 12.

[2] = test system: field corn (Zea mays L., var. Dekalb 535, CORN); assay: Pre-emerge test, crop safety; conditions: pre-emerge, 14 days after application, scale 0-100
Source text: as §1, §2
(§5) All test compounds Were dissolved in acetone and applied to the test units in a volume of 187 l /ha. Test materials were applied at rates ranging from 15 g ai/ha to 1000 g ai/ha using a track sprayer equipped with a TJ8001E even flow flat fan spray nozzle. Plants were arranged on a shelf so that the top of the canopy (post-emerge) or top of the soil surface (pre-emerge) was 40-45 cm below the nozzle. Pressurized air was used to force the test solution through the nozzle as it was mechanically advanced (via electrically driven chain drive) over the top of all test plants/pots. This application simulates a typical commercial field herbicide application.
as §3, §4

[3] = test system: upland rice (Oryza sp., var. Tebonnet, RICE); assay: Pre-emerge test, crop safety; conditions: pre-emerge, 14 days after application, scale 0-100
Source text: as §1, §2, §5, §3, §4

[4] = test system: ivyleaf morningglory (Ipomoea hederacea, IPOHE); assay: Pre-emerge test, greenhouse herbicide activity screening; conditions: for phytotoxicity rating IPOHE: pre-emerge, 14 days after application, scale 0-100; for Pre-emerge herbicidal activity, phytotoxicity rating IPOHE: rating scale 0-100, 14 days after application
Source text: as §1, §2, §5, §3, §4

[5] = test system: velvetleaf (Abutilon theophrasti, ABUTH); assay: as above; conditions: for phytotoxicity rating ABUTH: pre-emerge, 14 days after application, scale 0-100; for Pre-emerge herbicidal activity, phytotoxicity rating ABUTH: rating scale 0-100, 14 days after application
Source text: as §1, §2, §5, §3, §4

[6] = test system: sicklepod (Cassia obtusifolia, CASOB); assay: as above; conditions: for phytotoxicity rating CASOB: pre-emerge, 14 days after application, scale 0-100; for Pre-emerge herbicidal activity, phytotoxicity rating CASOB: rating scale 0-100, 14 days after application
Source text: as §1, §2, §5, §3, §4

[7] = test system: lambsquarters (Chenopodium album, CHEAL); assay: as above; conditions: for phytotoxicity rating CHEAL: pre-emerge, 14 days after application, scale 0-100; for Pre-emerge herbicidal activity, phytotoxicity rating CHEAL: rating scale 0-100, 14 days after application
Source text: as §1, §2, §5, §3, §4

[8] = test system: large crabgrass (Digitaria sanguinalis, DIGSA); assay: as above; conditions: for phytotoxicity rating DIGSA: pre-emerge, 14 days after application, scale 0-100; for Pre-emerge herbicidal activity, phytotoxicity rating DIGSA: rating scale 0-100, 14 days after application
Source text: as §1, §2, §5, §3, §4

[9] = test system: barnyardgrass (Echinochloa crus-galli, ECHCG); assay: as above; conditions: for phytotoxicity rating ECHCG: pre-emerge, 14 days after application, scale 0-100; for Pre-emerge herbicidal activity, phytotoxicity rating ECHCG: rating scale 0-100, 14 days after application
Source text: as §1, §2, §5, §3, §4

[10] = test system: green foxtail (Setaria viridis, SETVI); assay: as above; conditions: for phytotoxicity rating SETVI: pre-emerge, 14 days after application, scale 0-100; for Pre-emerge herbicidal activity, phytotoxicity rating SETVI: rating scale 0-100, 14 days after application
Source text: as §1, §2, §5, §3, §4

[11] = test system: ivyleaf morningglory (Ipomoea hederacea, IPOHE); assay: Post-emerge test, greenhouse herbicide activity screening; conditions: rating scale 0-100 (0 no damage, 100 complete death), 14 days after application
Source text: as §1, §2, §5, §3, §4

[12] = test system: velvetleaf (Abutilon theophrasti, ABUTH); assay: as above; conditions: rating scale 0-100 (0 no damage, 100 complete death), 14 days after application
Source text: as §1, §2, §5, §3, §4

[13] = test system: sicklepod (Cassia obtusifolia, CASOB); assay: as above; conditions: rating scale 0-100 (0 no damage, 100 complete death), 14 days after application
Source text: as §1, §2, §5, §3, §4

[14] = test system: redroot pigweed (Amaranthus retroflexus, AMARE); assay: as above; conditions: rating scale 0-100 (0 no damage, 100 complete death), 14 days after application
Source text: as §1, §2, §5, §3, §4

[15] = test system: lambsquarters (Chenopodium album, CHEAL); assay: as above; conditions: rating scale 0-100 (0 no damage, 100 complete death), 14 days after application
Source text: as §1, §2, §5, §3, §4

[16] = test system: large crabgrass (Digitaria sanguinalis, DIGSA); assay: as above; conditions: rating scale 0-100 (0 no damage, 100 complete death), 14 days after application
Source text: as §1, §2, §5, §3, §4

[17] = test system: barnyardgrass (Echinochloa crus-galli, ECHCG); assay: as above; conditions: rating scale 0-100 (0 no damage, 100 complete death), 14 days after application
Source text: as §1, §2, §5, §3, §4

[18] = test system: green foxtail (Setaria viridis, SETVI); assay: as above; conditions: rating scale 0-100 (0 no damage, 100 complete death), 14 days after application
Source text: as §1, §2, §5, §3, §4

COc1c(Cl)cc(F)c(-n2c(=O)cc(C(F)(F)F)n(C)c2=O)c1NC(=O)c1cc2ccccc2cc1C [2-157]
phytotoxicity rating AMARE ([1]; 63 g ai/ha): 100
phytotoxicity rating AMARE ([1]; 250 g ai/ha): 100
phytotoxicity rating CORN (crop damage) ([2]; 63 g ai/ha): 0
phytotoxicity rating CORN (crop damage) ([2]; 250 g ai/ha): 45
phytotoxicity rating RICE (crop damage) ([3]; 63 g ai/ha): 30
phytotoxicity rating RICE (crop damage) ([3]; 250 g ai/ha): 70
phytotoxicity rating IPOHE ([4]; 63 g ai/ha): 40
phytotoxicity rating IPOHE ([4]; 250 g ai/ha): 100
phytotoxicity rating ABUTH ([5]; 63 g ai/ha): 100
phytotoxicity rating ABUTH ([5]; 250 g ai/ha): 100
phytotoxicity rating CASOB ([6]; 63 g ai/ha): 30
phytotoxicity rating CASOB ([6]; 250 g ai/ha): 90
phytotoxicity rating CHEAL ([7]; 63 g ai/ha): 100
phytotoxicity rating CHEAL ([7]; 250 g ai/ha): 100
phytotoxicity rating DIGSA ([8]; 63 g ai/ha): 35
phytotoxicity rating DIGSA ([8]; 250 g ai/ha): 70
phytotoxicity rating ECHCG ([9]; 63 g ai/ha): 30
phytotoxicity rating ECHCG ([9]; 250 g ai/ha): 95
phytotoxicity rating SETVI ([10]; 63 g ai/ha): 30
phytotoxicity rating SETVI ([10]; 250 g ai/ha): 70

CCOC(=O)C(Cl)Cc1c(OC)c(Cl)cc(F)c1-n1c(=O)cc(C(F)(F)F)n(C)c1=O (single isomer, unassigned) [Compound 14-5, 3-{4-chloro-2-[2-chloro-2-(ethoxycarbonyl)ethyl]-6-fluoro-3-methoxyphenyl}-1-methyl-6-trifluoromethyl-2,4(1H, 3H)-pyrimidinedione]
Pre-emerge herbicidal activity, phytotoxicity rating AMARE ([1]; 63 g ai/ha): 70
Pre-emerge herbicidal activity, phytotoxicity rating AMARE ([1]; 250 g ai/ha): 100
Post-emerge Herbicidal Activity, phytotoxicity rating IPOHE ([11]; Rate 63 g ai/ha): 30
Post-emerge Herbicidal Activity, phytotoxicity rating IPOHE ([11]; Rate 250 g ai/ha): 100
Post-emerge Herbicidal Activity, phytotoxicity rating ABUTH ([12]; Rate 63 g ai/ha): 100
Post-emerge Herbicidal Activity, phytotoxicity rating ABUTH ([12]; Rate 250 g ai/ha): 100
Post-emerge Herbicidal Activity, phytotoxicity rating CASOB ([13]; Rate 63 g ai/ha): 10
Post-emerge Herbicidal Activity, phytotoxicity rating CASOB ([13]; Rate 250 g ai/ha): 50
Post-emerge Herbicidal Activity, phytotoxicity rating AMARE ([14]; Rate 63 g ai/ha): 100
Post-emerge Herbicidal Activity, phytotoxicity rating AMARE ([14]; Rate 250 g ai/ha): 100
Post-emerge Herbicidal Activity, phytotoxicity rating CHEAL ([15]; Rate 63 g ai/ha): 100
Post-emerge Herbicidal Activity, phytotoxicity rating CHEAL ([15]; Rate 250 g ai/ha): 100
Post-emerge Herbicidal Activity, phytotoxicity rating DIGSA ([16]; Rate 63 g ai/ha): 95
Post-emerge Herbicidal Activity, phytotoxicity rating DIGSA ([16]; Rate 250 g ai/ha): 100
Post-emerge Herbicidal Activity, phytotoxicity rating ECHCG ([17]; Rate 63 g ai/ha): 40
Post-emerge Herbicidal Activity, phytotoxicity rating ECHCG ([17]; Rate 250 g ai/ha): 100
Post-emerge Herbicidal Activity, phytotoxicity rating SETVI ([18]; Rate 63 g ai/ha): 60
Post-emerge Herbicidal Activity, phytotoxicity rating SETVI ([18]; Rate 250 g ai/ha): 95
Pre-emerge herbicidal activity, phytotoxicity rating IPOHE ([4]; 63 g ai/ha): 20
Pre-emerge herbicidal activity, phytotoxicity rating IPOHE ([4]; 250 g ai/ha): 30
Pre-emerge herbicidal activity, phytotoxicity rating ABUTH ([5]; 63 g ai/ha): 100
Pre-emerge herbicidal activity, phytotoxicity rating ABUTH ([5]; 250 g ai/ha): 100
Pre-emerge herbicidal activity, phytotoxicity rating CASOB ([6]; 63 g ai/ha): 0
Pre-emerge herbicidal activity, phytotoxicity rating CASOB ([6]; 250 g ai/ha): 10
Pre-emerge herbicidal activity, phytotoxicity rating CHEAL ([7]; 63 g ai/ha): 70
Pre-emerge herbicidal activity, phytotoxicity rating CHEAL ([7]; 250 g ai/ha): 100
Pre-emerge herbicidal activity, phytotoxicity rating DIGSA ([8]; 63 g ai/ha): 20
Pre-emerge herbicidal activity, phytotoxicity rating DIGSA ([8]; 250 g ai/ha): 95
Pre-emerge herbicidal activity, phytotoxicity rating ECHCG ([9]; 63 g ai/ha): 0
Pre-emerge herbicidal activity, phytotoxicity rating ECHCG ([9]; 250 g ai/ha): 40
Pre-emerge herbicidal activity, phytotoxicity rating SETVI ([10]; 63 g ai/ha): 10
Pre-emerge herbicidal activity, phytotoxicity rating SETVI ([10]; 250 g ai/ha): 60
